Read-outs that look alike come from different tables or passages of the source.
Key:
[1] = Exposure in colon tissue and colon contents in TNBS studies; format: in vivo, rat; conditions: TNBS rats, LC-MS/MS, LLOQ=2.6 nM
Protocol: Rats were deprived of food for 24 h prior to induction of colitis by intrarectal installation of TNBS 48 mg/kg (Sigma Aldrich; Raleigh, NC) in 50% ethanol on Day 0. All dose groups (n = approximately 10/group; up to 3 separate experiments) received TNBS, except negative controls, which received only water (n = 4). Rats were weighed daily. Euthanasia by overexposure to isoflurane occurred on Day 7. Following euthanasia, blood was collected retro-orbitally into serum separator microtainer tubes (Becton Dickinson; Franklin Lakes, NJ), centrifuged (2–3 min at 4 °C, 14,000 RPM), and stored at − 80 °C. Additionally, the whole colon was excised, measured, and photographed, and then cut open to allow for collection of the contents, which were weighed and flash frozen. After removal of the contents, colons were weighed and flash frozen. […] Colon weight/length ratio was calculated.
Table S3. […] All samples were analyzed using an LC-MS/MS method (LLOQ=2.6 nM).

[2] = target: T1, 5-HT2B (serotonin 2B receptor) (Homo sapiens, UniProt P41595); assay: SafetyScreen44: 5-HT2B; format: binding
T1 construct: purchased Eurofins Cerep SafetyScreen44
T1 sequence (P41595 whole entry): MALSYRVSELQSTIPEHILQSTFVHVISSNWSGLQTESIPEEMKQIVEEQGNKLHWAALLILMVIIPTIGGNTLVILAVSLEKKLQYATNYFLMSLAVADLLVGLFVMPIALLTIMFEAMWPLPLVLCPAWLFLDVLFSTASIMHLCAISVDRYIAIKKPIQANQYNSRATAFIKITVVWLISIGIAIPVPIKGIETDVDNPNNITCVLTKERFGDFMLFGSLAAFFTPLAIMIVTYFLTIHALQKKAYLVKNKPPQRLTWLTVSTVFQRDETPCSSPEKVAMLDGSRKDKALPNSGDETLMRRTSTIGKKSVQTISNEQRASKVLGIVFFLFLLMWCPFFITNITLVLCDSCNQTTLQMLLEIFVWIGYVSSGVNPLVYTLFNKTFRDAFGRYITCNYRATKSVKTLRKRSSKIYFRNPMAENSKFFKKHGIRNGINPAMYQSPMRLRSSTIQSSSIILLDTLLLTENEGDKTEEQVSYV

[3] = target: T2, Norepinephrine transporter (Homo sapiens, UniProt P23975); assay: SafetyScreen44: norepinephrine transporter; format: binding
T2 construct: purchased Eurofins Cerep SafetyScreen44
T2 sequence (P23975 whole entry): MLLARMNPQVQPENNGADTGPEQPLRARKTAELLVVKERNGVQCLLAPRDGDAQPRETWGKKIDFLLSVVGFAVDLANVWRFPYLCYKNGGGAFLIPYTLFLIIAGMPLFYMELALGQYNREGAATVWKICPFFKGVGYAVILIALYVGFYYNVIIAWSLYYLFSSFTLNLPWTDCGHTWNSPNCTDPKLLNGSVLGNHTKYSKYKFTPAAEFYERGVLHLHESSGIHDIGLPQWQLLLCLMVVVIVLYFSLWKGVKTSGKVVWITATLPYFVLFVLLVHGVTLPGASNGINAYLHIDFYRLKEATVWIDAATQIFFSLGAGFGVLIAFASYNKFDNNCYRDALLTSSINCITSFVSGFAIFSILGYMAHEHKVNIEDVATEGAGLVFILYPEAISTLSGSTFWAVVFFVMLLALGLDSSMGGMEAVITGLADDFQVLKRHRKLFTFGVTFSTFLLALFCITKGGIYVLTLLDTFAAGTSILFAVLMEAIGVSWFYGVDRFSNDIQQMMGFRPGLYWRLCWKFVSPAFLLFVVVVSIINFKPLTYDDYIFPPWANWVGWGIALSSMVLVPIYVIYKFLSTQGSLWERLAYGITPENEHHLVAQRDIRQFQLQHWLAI

[4] = target: T3, δ (DOP) (delta opioid receptor) (Homo sapiens, UniProt P41143); assay: SafetyScreen44: δ (DOP); format: binding
T3 construct: purchased Eurofins Cerep SafetyScreen44
T3 sequence (P41143 whole entry): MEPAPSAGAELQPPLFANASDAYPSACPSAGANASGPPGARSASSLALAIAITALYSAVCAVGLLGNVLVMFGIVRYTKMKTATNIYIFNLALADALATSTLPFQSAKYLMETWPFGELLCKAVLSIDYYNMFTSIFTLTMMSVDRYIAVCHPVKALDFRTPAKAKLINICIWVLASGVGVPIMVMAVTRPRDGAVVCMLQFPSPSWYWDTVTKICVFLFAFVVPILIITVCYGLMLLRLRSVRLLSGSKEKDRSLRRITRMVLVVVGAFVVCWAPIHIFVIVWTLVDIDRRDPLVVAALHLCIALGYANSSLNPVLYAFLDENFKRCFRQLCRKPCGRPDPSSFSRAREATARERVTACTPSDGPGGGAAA

[5] = target: T4, 5-HT1A (serotonin 1A receptor) (Homo sapiens, UniProt P08908); assay: SafetyScreen44: 5-HT1A; format: binding
T4 construct: purchased Eurofins Cerep SafetyScreen44
T4 sequence (P08908 1-422): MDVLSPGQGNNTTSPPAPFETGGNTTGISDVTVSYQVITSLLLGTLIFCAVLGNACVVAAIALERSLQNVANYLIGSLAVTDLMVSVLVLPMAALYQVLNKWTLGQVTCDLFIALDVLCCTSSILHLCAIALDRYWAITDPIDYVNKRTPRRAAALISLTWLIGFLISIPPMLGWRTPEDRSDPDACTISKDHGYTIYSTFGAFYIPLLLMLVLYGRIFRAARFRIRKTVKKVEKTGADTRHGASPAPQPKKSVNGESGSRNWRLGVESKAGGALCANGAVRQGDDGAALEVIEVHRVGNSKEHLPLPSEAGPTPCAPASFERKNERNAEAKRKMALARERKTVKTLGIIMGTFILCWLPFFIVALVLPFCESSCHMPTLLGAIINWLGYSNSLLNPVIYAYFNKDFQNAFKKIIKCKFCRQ

[6] = target: T5, PDE3A (phosphodiesterase 3A) (Homo sapiens, UniProt Q14432); assay: SafetyScreen44: PDE3A; format: biochemical
T5 construct: purchased Eurofins Cerep SafetyScreen44
T5 sequence (Q14432 whole entry): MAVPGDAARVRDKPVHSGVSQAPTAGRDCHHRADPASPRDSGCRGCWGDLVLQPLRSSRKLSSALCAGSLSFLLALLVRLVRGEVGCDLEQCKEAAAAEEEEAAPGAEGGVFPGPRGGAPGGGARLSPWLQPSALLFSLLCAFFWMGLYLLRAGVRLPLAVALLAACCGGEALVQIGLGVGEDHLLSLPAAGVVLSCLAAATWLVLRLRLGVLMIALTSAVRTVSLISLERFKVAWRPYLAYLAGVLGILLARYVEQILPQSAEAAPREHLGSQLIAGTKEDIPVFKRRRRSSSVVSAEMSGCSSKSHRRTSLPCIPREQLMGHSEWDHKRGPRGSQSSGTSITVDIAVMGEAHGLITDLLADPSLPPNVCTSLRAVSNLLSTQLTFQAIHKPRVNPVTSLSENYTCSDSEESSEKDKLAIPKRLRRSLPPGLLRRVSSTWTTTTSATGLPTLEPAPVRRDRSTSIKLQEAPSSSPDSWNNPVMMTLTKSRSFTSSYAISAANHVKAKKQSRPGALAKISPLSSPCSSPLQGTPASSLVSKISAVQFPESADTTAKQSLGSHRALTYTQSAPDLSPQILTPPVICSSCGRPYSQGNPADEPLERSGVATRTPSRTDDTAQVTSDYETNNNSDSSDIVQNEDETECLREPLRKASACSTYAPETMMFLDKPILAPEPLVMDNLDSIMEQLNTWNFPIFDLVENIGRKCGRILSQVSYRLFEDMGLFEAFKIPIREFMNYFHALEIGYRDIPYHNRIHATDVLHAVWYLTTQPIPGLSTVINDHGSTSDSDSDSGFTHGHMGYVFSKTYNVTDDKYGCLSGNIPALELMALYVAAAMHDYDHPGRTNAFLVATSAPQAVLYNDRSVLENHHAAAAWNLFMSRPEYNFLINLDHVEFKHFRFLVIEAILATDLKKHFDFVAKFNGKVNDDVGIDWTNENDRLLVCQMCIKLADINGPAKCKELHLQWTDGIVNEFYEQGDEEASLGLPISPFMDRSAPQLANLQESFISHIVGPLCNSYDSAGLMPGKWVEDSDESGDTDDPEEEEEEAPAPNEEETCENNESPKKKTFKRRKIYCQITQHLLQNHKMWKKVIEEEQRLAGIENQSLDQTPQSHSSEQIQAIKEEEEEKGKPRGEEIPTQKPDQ

[7] = target: T6, H2 (histamine H2 receptor) (Homo sapiens, UniProt P25021); assay: SafetyScreen44: H2; format: binding
T6 construct: purchased Eurofins Cerep SafetyScreen44
T6 sequence (P25021 whole entry): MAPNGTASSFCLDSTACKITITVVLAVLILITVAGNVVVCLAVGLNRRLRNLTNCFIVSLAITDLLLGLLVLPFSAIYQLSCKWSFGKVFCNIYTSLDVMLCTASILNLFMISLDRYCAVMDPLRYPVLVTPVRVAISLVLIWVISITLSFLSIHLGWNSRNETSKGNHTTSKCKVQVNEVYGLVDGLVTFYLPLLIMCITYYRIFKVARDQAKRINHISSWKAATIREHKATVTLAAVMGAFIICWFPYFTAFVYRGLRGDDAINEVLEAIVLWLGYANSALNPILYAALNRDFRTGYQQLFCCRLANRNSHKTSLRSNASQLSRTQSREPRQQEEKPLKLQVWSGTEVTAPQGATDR

[8] = target: T7, M3 (muscarinic acetylcholine receptor M3) (Homo sapiens, UniProt P20309); assay: SafetyScreen44: M3; format: binding
T7 construct: purchased Eurofins Cerep SafetyScreen44
T7 sequence (P20309 whole entry): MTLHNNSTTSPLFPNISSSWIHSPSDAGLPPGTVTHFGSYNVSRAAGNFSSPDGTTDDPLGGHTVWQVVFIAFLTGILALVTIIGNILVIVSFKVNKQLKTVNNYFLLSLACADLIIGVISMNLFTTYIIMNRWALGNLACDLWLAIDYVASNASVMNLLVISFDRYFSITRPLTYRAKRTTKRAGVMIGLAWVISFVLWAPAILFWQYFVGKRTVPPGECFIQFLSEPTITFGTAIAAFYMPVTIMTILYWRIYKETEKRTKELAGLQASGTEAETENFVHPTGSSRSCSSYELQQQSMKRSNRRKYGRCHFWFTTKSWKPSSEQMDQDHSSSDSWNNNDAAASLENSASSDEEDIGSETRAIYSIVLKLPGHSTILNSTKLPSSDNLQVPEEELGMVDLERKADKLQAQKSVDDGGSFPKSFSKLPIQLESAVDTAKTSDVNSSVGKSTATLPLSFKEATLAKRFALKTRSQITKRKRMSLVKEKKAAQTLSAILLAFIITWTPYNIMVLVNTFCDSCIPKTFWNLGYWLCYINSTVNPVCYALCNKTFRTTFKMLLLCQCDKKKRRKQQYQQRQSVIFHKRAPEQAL

[9] = Plasma levels in rat skin inflammation model; format: in vivo; conditions: all doses except 300 mg/kg BID, data not shown
Protocol: Other groups received anti–IL-23p19 antibody (Santa Cruz Biotechnology; Catalog #sc-271279LS) or isotype antibody via intraperitoneal injection on Days -1 and 3, as additional controls. On Day 0 through Day 3, rats were anesthetized with isoflurane and injected with 1.5 μg of recombinant rat IL-23 (R&D Systems) in 20 μL PBS, intradermally, in the right ear; controls received an equivalent volume of PBS. Body weight was recorded daily. Thickness of the right (IL-23 injected) ear was measured to the nearest 0.05 mm using calipers (Kroeplin GmbH; Schlüchtern, Germany). Animals were euthanized by CO2 asphyxiation on Day 4. Blood was collected via cardiac puncture, deposited into K2EDTA tubes, and centrifuged at 2000 × g for 20 min. Plasma was collected into 5% volume protease inhibitor and stored at − 80 °C until bioanalysis by LC–MS. For gene expression analyses (IL-22, IL-17A, and IL-17F), the right ear was excised, flash frozen, homogenized, and reverse transcription polymerase chain reaction (RT-PCR) was performed using a TaqMan gene expression array (ThermoFisher Scientific).

With CC(=O)NCCCC[C@@H]1NC(=O)[C@H](Cc2c[nH]c3c(C)cccc23)NC(=O)[C@H]([C@@H](C)O)NC(=O)[C@H](CC(N)=O)NC(=O)[C@@H](NC(C)=O)C(C)(C)SSC(C)(C)[C@@H](C(=O)N[C@@H](Cc2ccc(OCCN)cc2)C(=O)N[C@@H](Cc2ccc3ccccc3c2)C(=O)NC2(C(=O)N[C@@H](CCC(=O)O)C(=O)N[C@@H](CC(N)=O)C(=O)N[C@@H](Cc3cccnc3)C(=O)N(C)CC(N)=O)CCOCC2)NC1=O [JNJ-77242113, S^3,1,S^3,6-cyclo[N-acetyl-3-sulfanyl-L-valyl-L-asparaginyl-L-threonyl-7-methyl-L-tryptophyl-N^6-acetyl-L-lysyl-3-sulfanyl-L-valyl-O-(2-aminoethyl)-L-tyrosyl-3-(naphthalen-2-yl)-L-alanyl-4-aminooxan-4-carbonyl-L-α-glutamyl-L-asparaginyl-3-(pyridin-3-yl)-L-alanyl-N^2-methylglycinamide]] the Colon tissue concentration ([1]; 0.03 mg/kg/day oral, Study 2) was “BQL”, the level at time molar ([1]; 0.1 mg/kg/day oral, Study 1, read-out: Colon content concentration) was 410 nM and the level at time molar ([1]; 0.1 mg/kg/day oral, Study 1, read-out: Colon tissue concentration) was 12.8 nM. For the same compound, the level at time molar ([1]; 0.1 mg/kg/day oral, Study 2, read-out: Colon content concentration) was 310 nM, the level at time molar ([1]; 0.1 mg/kg/day oral, Study 2, read-out: Colon tissue concentration) was 16.8 nM and the Colon tissue concentration ([1]; 0.1 mg/kg/day oral, Study 3) was “BQL”. The level at time molar ([1]; 0.1 mg/kg/day oral, Study 3, read-out: Colon content concentration) was 299 nM, the level at time molar ([1]; 0.3 mg/kg/day oral, Study 1, read-out: Colon tissue concentration) was 25.4 nM and the level at time molar ([1]; 1 mg/kg/day oral, Study 1, read-out: Colon content concentration) was 3340 nM. The level at time molar ([1]; 1 mg/kg/day oral, Study 2, read-out: Colon content concentration) was 3920 nM, the level at time molar ([1]; 1 mg/kg/day oral, Study 3, read-out: Colon content concentration) was 3190 nM and the level at time molar ([1]; 3 mg/kg/day oral, Study 1, read-out: Colon content concentration) was 9210 nM. For the same compound, the level at time molar ([1]; 3 mg/kg/day oral, Study 1, read-out: Colon tissue concentration) was 333 nM, the level at time molar ([1]; 3 mg/kg/day oral, Study 2, read-out: Colon content concentration) was 11700 nM and the level at time molar ([1]; 3 mg/kg/day oral, Study 2, read-out: Colon tissue concentration) was 468 nM. For the same compound, the level at time molar ([1]; 3 mg/kg/day oral, Study 3, read-out: Colon content concentration) was 11000 nM, the level at time molar ([1]; 3 mg/kg/day oral, Study 3, read-out: Colon tissue concentration) was 268 nM and the level at time molar ([1]; male, Sprague-Dawley, rat, colon content, po, 0.03 mg/kg/day, 0.03 mg/kg/day oral, Study 2, read-out: Colon content concentration) was 90.1 nM. The level at time molar ([1]; male, Sprague-Dawley, rat, colon content, po, 0.3 mg/kg/day, 0.3 mg/kg/day oral, Study 1, read-out: Colon content concentration) was 973 nM, the level at time molar ([1]; male, Sprague-Dawley, rat, colon content, po, 0.3 mg/kg/day, 0.3 mg/kg/day oral, Study 2, read-out: Colon content concentration) was 1050 nM and the level at time molar ([1]; male, Sprague-Dawley, rat, colon content, po, 0.3 mg/kg/day, 0.3 mg/kg/day oral, Study 3, read-out: Colon content concentration) was 1680 nM. The level at time molar ([1]; male, Sprague-Dawley, rat, colon content, po, 10 mg/kg/day, 10 mg/kg/day oral, Study 2, read-out: Colon content concentration) was 38700 nM, the level at time molar ([1]; male, Sprague-Dawley, rat, colon tissue, po, 0.3 mg/kg/day, 0.3 mg/kg/day oral, Study 2, read-out: Colon tissue concentration) was 47.5 nM and the level at time molar ([1]; male, Sprague-Dawley, rat, colon tissue, po, 0.3 mg/kg/day, 0.3 mg/kg/day oral, Study 3, read-out: Colon tissue concentration) was 23.4 nM. For the same compound, the level at time molar ([1]; male, Sprague-Dawley, rat, colon tissue, po, 1 mg/kg/day, 1 mg/kg/day oral, Study 1, read-out: Colon tissue concentration) was 84.3 nM, the level at time molar ([1]; male, Sprague-Dawley, rat, colon tissue, po, 1 mg/kg/day, 1 mg/kg/day oral, Study 2, read-out: Colon tissue concentration) was 168 nM and the level at time molar ([1]; male, Sprague-Dawley, rat, colon tissue, po, 1 mg/kg/day, 1 mg/kg/day oral, Study 3, read-out: Colon tissue concentration) was 83.2 nM. For the same compound, the level at time molar ([1]; male, Sprague-Dawley, rat, colon tissue, po, 10 mg/kg/day, 10 mg/kg/day oral, Study 2, read-out: Colon tissue concentration) was 1410 nM, the inhibition at 10 µM ([2]; 1st run, read-out: Percent inhibition of control ligand binding, 5-HT2B, 1st run) was -19.6% and the inhibition at 10 µM ([2]; 2nd run, read-out: Percent inhibition of control ligand binding, 5-HT2B, 2nd run) was -6.7%. The inhibition at 10 µM ([2]; mean of 2 runs, read-out: Percent inhibition of control ligand binding, 5-HT2B, Mean) was -13.1%, the inhibition at 10 µM ([3]; 1st run, read-out: Percent inhibition of control ligand binding, Norepinephrine transporter, 1st run) was -1.3% and the inhibition at 10 µM ([3]; 2nd run, read-out: Percent inhibition of control ligand binding, Norepinephrine transporter, 2nd run) was -0.6%. The inhibition at 10 µM ([3]; mean of 2 runs, read-out: Percent inhibition of control ligand binding, Norepinephrine transporter, Mean) was -1%, the inhibition at 10 µM ([4]; 1st run, read-out: Percent inhibition of control ligand binding, δ (DOP), 1st run) was -7.8% and the inhibition at 10 µM ([4]; 2nd run, read-out: Percent inhibition of control ligand binding, δ (DOP), 2nd run) was 0.4%. It also gave an inhibition at 10 µM ([4]; mean of 2 runs, read-out: Percent inhibition of control ligand binding, δ (DOP), Mean) of -3.7%, an inhibition at 10 µM ([5]; 1st run, read-out: Percent inhibition of control ligand binding, 5-HT1A, 1st run) of -5.6% and an inhibition at 10 µM ([5]; 2nd run, read-out: Percent inhibition of control ligand binding, 5-HT1A, 2nd run) of 2.8%. For the same compound, the inhibition at 10 µM ([5]; mean of 2 runs, read-out: Percent inhibition of control ligand binding, 5-HT1A, Mean) was -1.4%, the inhibition at 10 µM ([6]; 1st run, read-out: Percent inhibition of control ligand binding, PDE3A, 1st run) was -30.6% and the inhibition at 10 µM ([6]; 2nd run, read-out: Percent inhibition of control ligand binding, PDE3A, 2nd run) was -44.7%. For the same compound, the inhibition at 10 µM ([6]; mean of 2 runs, read-out: Percent inhibition of control ligand binding, PDE3A, Mean) was -37.6%, the inhibition at 10 µM ([7]; 1st run, read-out: Percent inhibition of control ligand binding, H2, 1st run) was -26.6% and the inhibition at 10 µM ([7]; 2nd run, read-out: Percent inhibition of control ligand binding, H2, 2nd run) was -22%. The inhibition at 10 µM ([7]; mean of 2 runs, read-out: Percent inhibition of control ligand binding, H2, Mean) was -24.3%, the inhibition at 10 µM ([8]; 1st run, read-out: Percent inhibition of control ligand binding, M3, 1st run) was -10.5% and the inhibition at 10 µM ([8]; 2nd run, read-out: Percent inhibition of control ligand binding, M3, 2nd run) was -5.2%. The inhibition at 10 µM ([8]; mean of 2 runs, read-out: Percent inhibition of control ligand binding, M3, Mean) was -7.8% and the “Plasma levels 16 h after the final dose” value [9] was “below the limit of quantification”.
